Results: ChEMBL document CHEMBL1157740, “The discovery of novel tartrate-based TNF-alpha converting enzyme (TACE) inhibitors” (Bioorg Med Chem Lett, 2010)

Columns and labels:
[1] = biological target: Disintegrin and metalloproteinase domain-containing protein 17 (Homo sapiens, UniProt P78536); assay: Inhibition of TACE
[2] = biological target: T1, Disintegrin and metalloproteinase domain-containing protein 10 (Homo sapiens, UniProt O14672); assay: Inhibition of ADAM10
T1 sequence (O14672 whole entry): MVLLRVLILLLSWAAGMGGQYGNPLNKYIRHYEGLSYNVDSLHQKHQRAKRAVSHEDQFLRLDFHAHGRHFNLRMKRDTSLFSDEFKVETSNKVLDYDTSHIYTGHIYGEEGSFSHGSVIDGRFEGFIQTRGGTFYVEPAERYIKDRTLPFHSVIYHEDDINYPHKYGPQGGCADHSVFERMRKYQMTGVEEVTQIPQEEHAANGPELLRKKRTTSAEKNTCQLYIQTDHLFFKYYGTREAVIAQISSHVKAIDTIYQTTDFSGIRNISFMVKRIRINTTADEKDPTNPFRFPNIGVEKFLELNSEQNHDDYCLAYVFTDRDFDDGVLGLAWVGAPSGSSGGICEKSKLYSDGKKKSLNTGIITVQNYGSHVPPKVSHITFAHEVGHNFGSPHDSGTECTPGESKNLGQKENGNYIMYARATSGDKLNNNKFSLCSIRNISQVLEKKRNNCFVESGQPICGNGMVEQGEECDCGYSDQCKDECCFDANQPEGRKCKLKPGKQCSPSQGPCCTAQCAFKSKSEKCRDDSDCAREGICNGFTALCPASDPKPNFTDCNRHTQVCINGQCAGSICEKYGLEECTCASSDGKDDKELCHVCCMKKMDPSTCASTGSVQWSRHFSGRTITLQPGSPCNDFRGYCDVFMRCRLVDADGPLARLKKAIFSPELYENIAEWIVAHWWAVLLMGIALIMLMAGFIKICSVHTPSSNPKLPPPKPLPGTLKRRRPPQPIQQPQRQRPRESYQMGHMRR

[3] = biological target: 72 kDa type IV collagenase (Homo sapiens, UniProt P08253); assay: Inhibition of MMP2
Sequence of 72 kDa type IV collagenase (P08253 whole entry): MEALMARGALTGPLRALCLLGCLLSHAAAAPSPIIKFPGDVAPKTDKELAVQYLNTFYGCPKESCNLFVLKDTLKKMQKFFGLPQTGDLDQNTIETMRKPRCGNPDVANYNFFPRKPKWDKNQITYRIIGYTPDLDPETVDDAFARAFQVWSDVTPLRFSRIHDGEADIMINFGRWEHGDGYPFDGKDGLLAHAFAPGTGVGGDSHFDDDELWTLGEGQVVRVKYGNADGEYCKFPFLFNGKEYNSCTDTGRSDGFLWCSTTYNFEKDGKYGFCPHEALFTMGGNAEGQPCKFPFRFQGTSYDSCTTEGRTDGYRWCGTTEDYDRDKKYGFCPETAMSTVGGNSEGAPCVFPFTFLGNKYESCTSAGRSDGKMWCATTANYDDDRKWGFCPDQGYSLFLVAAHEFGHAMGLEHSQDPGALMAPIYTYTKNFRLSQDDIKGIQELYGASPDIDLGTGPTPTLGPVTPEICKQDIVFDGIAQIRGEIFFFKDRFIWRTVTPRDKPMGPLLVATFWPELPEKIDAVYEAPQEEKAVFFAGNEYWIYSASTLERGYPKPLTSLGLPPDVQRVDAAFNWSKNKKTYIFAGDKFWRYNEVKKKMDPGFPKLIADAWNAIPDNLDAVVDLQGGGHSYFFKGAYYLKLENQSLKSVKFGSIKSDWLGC

Collagenase 3 = Collagenase 3 (Homo sapiens, UniProt P45452); assay: Inhibition of MMP13
Matrilysin = biological target: T2, Matrilysin (Homo sapiens, UniProt P09237); assay: Inhibition of MMP7
T2 sequence (P09237 whole entry): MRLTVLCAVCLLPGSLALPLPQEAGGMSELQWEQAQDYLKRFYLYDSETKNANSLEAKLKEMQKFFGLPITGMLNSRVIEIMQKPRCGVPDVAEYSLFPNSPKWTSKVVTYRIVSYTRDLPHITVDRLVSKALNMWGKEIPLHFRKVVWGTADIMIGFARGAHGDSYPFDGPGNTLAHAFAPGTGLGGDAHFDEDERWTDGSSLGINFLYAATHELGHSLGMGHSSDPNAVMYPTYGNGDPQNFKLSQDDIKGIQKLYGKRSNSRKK

Stromelysin-1 = Stromelysin-1 (Homo sapiens, UniProt P08254); assay: Inhibition of MMP3
Sequence of Stromelysin-1 (P08254 whole entry): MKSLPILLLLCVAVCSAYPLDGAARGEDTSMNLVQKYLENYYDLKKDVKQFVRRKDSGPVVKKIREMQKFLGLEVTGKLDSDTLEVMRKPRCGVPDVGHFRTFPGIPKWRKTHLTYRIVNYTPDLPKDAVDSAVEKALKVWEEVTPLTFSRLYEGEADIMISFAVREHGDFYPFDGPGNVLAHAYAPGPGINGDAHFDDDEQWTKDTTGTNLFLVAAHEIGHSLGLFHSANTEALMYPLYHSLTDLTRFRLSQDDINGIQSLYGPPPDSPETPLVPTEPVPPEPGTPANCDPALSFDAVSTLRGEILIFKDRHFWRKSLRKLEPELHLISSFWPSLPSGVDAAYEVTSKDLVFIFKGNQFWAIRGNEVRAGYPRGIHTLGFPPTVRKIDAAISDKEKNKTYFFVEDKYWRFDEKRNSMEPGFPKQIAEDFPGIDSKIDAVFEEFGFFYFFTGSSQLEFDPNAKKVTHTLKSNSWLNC

Interstitial collagenase = biological target: T3, Interstitial collagenase (Homo sapiens, UniProt P03956); assay: Inhibition of MMP1
T3 sequence (P03956 whole entry): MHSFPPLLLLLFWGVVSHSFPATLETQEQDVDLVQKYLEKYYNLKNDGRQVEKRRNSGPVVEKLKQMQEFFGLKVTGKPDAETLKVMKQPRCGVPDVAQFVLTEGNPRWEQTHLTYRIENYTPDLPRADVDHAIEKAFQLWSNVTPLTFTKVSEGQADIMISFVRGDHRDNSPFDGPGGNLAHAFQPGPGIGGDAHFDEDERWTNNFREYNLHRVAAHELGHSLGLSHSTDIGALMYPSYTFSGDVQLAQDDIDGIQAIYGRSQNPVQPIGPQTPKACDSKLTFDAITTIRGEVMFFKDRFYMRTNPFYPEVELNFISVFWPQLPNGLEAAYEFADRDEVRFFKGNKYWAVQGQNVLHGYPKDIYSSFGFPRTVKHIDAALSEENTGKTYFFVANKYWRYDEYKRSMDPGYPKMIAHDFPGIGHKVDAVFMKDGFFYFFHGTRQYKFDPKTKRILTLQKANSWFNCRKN

[4] = biological target: Matrix metalloproteinase-14 (Homo sapiens, UniProt P50281); assay: Inhibition of MMP14
[5] = biological target: Macrophage metalloelastase (Homo sapiens, UniProt P39900); assay: Inhibition of MMP12
Sequence of Macrophage metalloelastase (P39900 whole entry): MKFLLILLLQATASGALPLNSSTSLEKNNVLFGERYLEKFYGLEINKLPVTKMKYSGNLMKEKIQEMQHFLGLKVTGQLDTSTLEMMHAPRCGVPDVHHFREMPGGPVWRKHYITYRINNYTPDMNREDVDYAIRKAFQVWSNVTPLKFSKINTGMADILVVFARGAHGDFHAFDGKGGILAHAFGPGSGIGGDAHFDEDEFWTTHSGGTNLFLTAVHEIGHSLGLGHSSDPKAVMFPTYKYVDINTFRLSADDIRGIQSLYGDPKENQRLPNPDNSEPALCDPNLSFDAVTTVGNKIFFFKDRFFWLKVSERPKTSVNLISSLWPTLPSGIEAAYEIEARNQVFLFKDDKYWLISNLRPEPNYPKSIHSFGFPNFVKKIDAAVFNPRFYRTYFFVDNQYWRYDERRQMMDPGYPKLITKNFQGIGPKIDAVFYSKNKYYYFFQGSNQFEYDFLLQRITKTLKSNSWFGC

Sequence of Disintegrin and metalloproteinase domain-containing protein 17 (P78536 whole entry, the tested form may be a part): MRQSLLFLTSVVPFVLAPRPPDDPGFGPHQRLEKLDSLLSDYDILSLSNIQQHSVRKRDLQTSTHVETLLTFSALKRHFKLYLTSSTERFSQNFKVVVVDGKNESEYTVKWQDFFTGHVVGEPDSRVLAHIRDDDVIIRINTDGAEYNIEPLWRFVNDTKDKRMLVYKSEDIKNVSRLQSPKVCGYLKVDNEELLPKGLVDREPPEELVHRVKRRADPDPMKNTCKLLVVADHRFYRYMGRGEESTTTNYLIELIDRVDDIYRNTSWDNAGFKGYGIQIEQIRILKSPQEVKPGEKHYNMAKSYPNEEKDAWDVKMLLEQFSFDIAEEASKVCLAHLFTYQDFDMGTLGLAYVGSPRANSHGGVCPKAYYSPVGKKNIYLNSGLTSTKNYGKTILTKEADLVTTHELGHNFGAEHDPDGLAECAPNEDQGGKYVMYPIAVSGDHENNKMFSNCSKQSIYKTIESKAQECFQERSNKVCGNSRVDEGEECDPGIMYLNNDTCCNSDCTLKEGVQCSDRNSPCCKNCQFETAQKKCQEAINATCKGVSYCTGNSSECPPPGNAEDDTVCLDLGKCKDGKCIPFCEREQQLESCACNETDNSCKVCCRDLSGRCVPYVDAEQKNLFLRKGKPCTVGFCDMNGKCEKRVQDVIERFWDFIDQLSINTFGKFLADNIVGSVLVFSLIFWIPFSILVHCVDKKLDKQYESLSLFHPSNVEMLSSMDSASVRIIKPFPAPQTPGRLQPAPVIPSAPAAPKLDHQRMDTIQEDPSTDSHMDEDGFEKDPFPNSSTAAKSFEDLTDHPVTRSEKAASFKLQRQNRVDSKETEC

Row | Structure (SMILES) | Ki ([1]; read-out: Ki) | further results
1 | O=C(NCCc1cccs1)[C@H](O)[C@@H](O)C(=O)NCc1ccccc1 |  | Ki [1]: Not Active
2 | COc1cccc(N2CCN(C(=O)[C@H](O)[C@@H](O)C(=O)NCCc3cccs3)CC2)c1 | 400 nM | 
3 | O=C(NCCc1nc(Cc2ccccc2)co1)[C@H](O)[C@@H](O)C(=O)N1CCCC1c1ccccc1 (some centres undefined) | 461 nM | 
4 | O=C(NCCc1cccs1)[C@H](O)[C@@H](O)C(=O)N1CCc2ccccc2C1 | 91 nM | 
5 | O=C(NCCc1cccs1)[C@H](O)[C@@H](O)C(=O)N1CCCC1c1ccccn1 (some centres undefined) | 188 nM | 
6 | O=C(NCc1cc(Cc2ccccc2)cs1)[C@H](O)[C@@H](O)C(=O)N1CCCC1c1ccc(F)cc1 (some centres undefined) | 93 nM | 
7 | CN(C(=O)[C@H](O)[C@@H](O)C(=O)NCCc1cccs1)C1CCCCC1 | 1400 nM | 
8 | O=C(NCc1cc(CC2C=CC=CC2Cl)cs1)[C@H](O)[C@@H](O)C(=O)N1CCC[C@@H]1c1cccc(Cl)c1 (some centres undefined) | 13 nM | 
9 | CN(Cc1cccnc1)C(=O)[C@H](O)[C@@H](O)C(=O)NCCc1cccs1 | 943 nM | 
10 | O=C([C@H](O)[C@@H](O)C(=S)NCc1cc(Cc2ccccc2Cl)cs1)N1CCCC1c1cccc(Cl)c1 (some centres undefined) | 1110 nM | 
11 | O=C(NCCc1cccs1)[C@H](O)[C@@H](O)C(=O)N1CCC(c2ccccc2)C1 (some centres undefined) | 456 nM | 
12 | O=C(NCc1nc(Cc2ccccc2)co1)[C@H](O)[C@@H](O)C(=O)N1CCCC1c1ccccc1 (some centres undefined) | 22 nM | 
13 | O=C(NCCc1cc(Cc2ccccc2)cs1)[C@H](O)[C@@H](O)C(=O)N1CCCC1c1ccccc1 (some centres undefined) | 66 nM | Ki [2]: > 25000 nM; Ki [3]: > 50000 nM; Ki (Collagenase 3): 3600 nM; Ki (Matrilysin): 6000 nM; Ki (Interstitial collagenase): > 50000 nM; Ki [4]: > 30000 nM; Ki [5]: 700 nM
14 | CN(CCc1ccccc1)C(=O)[C@H](O)[C@@H](O)C(=O)NCCc1cccs1 | 1280 nM | 
15 | CN(Cc1ccco1)C(=O)[C@H](O)[C@@H](O)C(=O)NCCc1cccs1 | 1020 nM | 
16 | O=C(NCc1cc(Cc2ccccc2Cl)cs1)[C@H](O)[C@@H](O)C(=S)N1CCCC1c1cccc(Cl)c1 (some centres undefined) | 1520 nM | 
17 | C[C@H](c1ccccc1)N(C)C(=O)[C@H](O)[C@@H](O)C(=O)NCCc1cccs1 | 238 nM | 
18 | O=C(NCc1ccc(Cc2ccccc2)cc1)[C@H](O)[C@@H](O)C(=O)N1CCCC1c1cccc(Cl)c1 (some centres undefined) | 70 nM | 
19 | C[C@@H](c1ccccc1)N(C)C(=O)[C@H](O)[C@@H](O)C(=O)NCCc1cccs1 | 487 nM | 
20 | O=C(NCc1cc2ccccc2o1)[C@H](O)[C@@H](O)C(=O)N1CCCC1c1ccccc1 (some centres undefined) | 160 nM | Ki [2]: 734 nM; Ki [3]: 300 nM; Ki (Collagenase 3): 510 nM; Ki (Matrilysin): > 50000 nM; Ki (Stromelysin-1): 7700 nM; Ki (Interstitial collagenase): 18700 nM; Ki [4]: 140 nM
21 | Cn1ccnc1[C@H](O)[C@@H](O)C(=O)NCCc1cccs1 | 10600 nM | 
22 | O=C(NCc1nc(Cc2ccccc2)cs1)[C@H](O)[C@@H](O)C(=O)N1CCCC1c1ccccc1 (some centres undefined) | 8 nM | 
23 | O=C(NCCc1cccs1)[C@H](O)[C@@H](O)C(=O)N1CCCC1c1nccs1 (some centres undefined) | 164 nM | 
24 | O=C(NCCc1cccs1)[C@H](O)[C@@H](O)c1nccs1 | 5530 nM | 
25 | O=C(NCCc1cccs1)[C@H](O)CC(=O)N1CCCC1c1cccc(Cl)c1 (some centres undefined) |  | Ki [1]: Not Active
26 | CN(CCc1cccs1)C(=O)[C@H](O)[C@@H](O)C(=O)N1CCN(c2ccccc2Cl)CC1 |  | Ki [1]: Not Active
27 | O=C(NCCc1cccs1)[C@H](O)[C@@H](O)C(=O)N1CCCCC1c1ccccc1 (some centres undefined) | 325 nM | 
28 | O=C(C[C@@H](O)C(=O)N1CCCC1c1cccc(Cl)c1)NCCc1cccs1 (some centres undefined) |  | Ki [1]: Not Active

More lines, main results first:

Row | Ki ([1]; read-out: Ki) | Structure (SMILES) | further results
29 | 13 nM | Cc1cccc(C2CCCN2C(=O)[C@H](O)[C@@H](O)C(=O)N(C)CCc2cccs2)c1 (some centres undefined) | 
30 | 48 nM | O=C(NCCc1nc(Cc2ccccc2)cs1)[C@H](O)[C@@H](O)C(=O)N1CCCC1c1ccccc1 (some centres undefined) | 
31 | 764 nM | CN(Cc1ccccc1)C(=O)[C@H](O)[C@@H](O)C(=O)NCCc1cccs1 | 
32 | 11 nM | O=C(NCCc1cccs1)[C@H](O)[C@@H](O)C(=O)N1CCCC1c1cccc(Cl)c1 (some centres undefined) | Ki [2]: 29 nM; Ki [3]: 33000 nM; Ki (Collagenase 3): 20000 nM; Ki (Matrilysin): > 50000 nM; Ki (Stromelysin-1): 17000 nM; Ki (Interstitial collagenase): > 50000 nM; Ki [4]: 11000 nM; Ki [5]: > 50000 nM
33 | 323 nM | O=C(NCCc1cccs1)[C@H](O)[C@@H](O)C(=O)N1CCCC1c1ccccc1Cl (some centres undefined) | 
34 | 400 nM | O=C(NCCc1cccs1)[C@H](O)[C@@H](O)C(=O)N1CCN(c2ccccc2Cl)CC1 | Ki [2]: 400 nM; Ki [3]: > 30000 nM; Ki (Collagenase 3): 7000 nM; Ki (Matrilysin): > 60000 nM; Ki (Stromelysin-1): > 50000 nM; Ki (Interstitial collagenase): > 90000 nM; Ki [4]: > 40000 nM; Ki [5]: 9000 nM
35 | 33 nM | COc1cccc(C2CCCN2C(=O)[C@H](O)[C@@H](O)C(=O)N(C)CCc2cccs2)c1 (some centres undefined) | 
36 | 1300 nM | CN(C)C(=O)[C@H](O)[C@@H](O)C(=O)NCCc1cccs1 | 
37 | 41 nM | CN(C)c1cccc(C2CCCN2C(=O)[C@H](O)[C@@H](O)C(=O)NCCc2cccs2)c1 (some centres undefined) | 
38 | 96 nM | O=C(NCCc1cccs1)[C@H](O)[C@@H](O)C(=O)N1CCCC1c1ccccc1 (some centres undefined) | 
39 | 2500 nM | O=C(NCCc1cccs1)[C@H](O)[C@@H](O)C(=O)N1CCN(c2ccccn2)CC1 | 
40 | 66 nM | O=C(NCCc1cccs1)[C@H](O)[C@@H](O)C(=O)N1Cc2ccccc2C1 | 
41 | 1440 nM | O=C(NCc1ccccc1)[C@H](O)[C@@H](O)C(=O)N1CCCC1c1cccc(Cl)c1 (some centres undefined) | 
42 | 20 nM | O=C(NCCc1cccs1)[C@H](O)[C@@H](O)C(=O)N1CCC[C@@H]1c1ccccc1 | 
43 | 1100 nM | O=C(NCCc1cccs1)[C@H](O)[C@@H](O)C(=O)N1CCC(Cc2ccccc2)CC1 | 
44 | 755 nM | O=C(NCCc1cccs1)[C@H](O)[C@@H](O)C(=O)N1CCCC1c1ccc(Cl)cc1 (some centres undefined) | 
